Results reported in patent EP0127529A2, “Aminocyclic N-oxide derivatives, process for their preparation and their therapeutical use” (DELALANDE S.A., priority 1983, dated 1984).

How the values were obtained:
souris = experiment: Acute toxicity in mice, intraperitoneal route; assay type: in vivo; conditions: i.p.
Description: La toxicité aiguë des composés selon l'invention a également été étudiée chez la souris par voie intrapéritonéale. Le tableau II ci-après donne à titre d'exemple non limitatif les résultats obtenus avec certains des composés selon l'invention.

[1] = tested on: redressements à l'apomorphine; experiment: Antagonism of apomorphine-induced rearing (climbing) in mice; assay type: in vivo; conditions: souris, i.p.
Description: Ces propriétés psychotropes ont été mises en évidence chez la souris, notamment par le test de l'antagonisme aux redressements à l'apomorphine réalisé d'après le protocole décrit par G. GOURET et Coll. dans J. Pharmacol. (Paris) (^1973), ^4, 341.

For `COc1cccc(C(=O)NC2CC3CCC(C2)[N+]3([O-])Cc2ccccc2)c1OC` (stereo not shown) [compound 2, N-oxyde équatorial du (diméthoxy-2,3) benzoylamino-3 N-benzyl aza-8 bicyclo[3.2.1] octane], which “Toxicité (souris) DL 50” value (souris) is on record?
Its value is 400 mg/kg/i.p.

What about the “Antagonisme aux redressements à l'apomorphine DE 50” value [1] of the same molecule?
Its value is 0,27 mg/kg/i.p.

With `COc1cccc(C(=O)NC2CC3CCC(C2)[N+]3([O-])Cc2ccccc2)c1OC` (stereo not shown) [compound 1, N-oxyde axial du (diméthoxy-2,3) benzoylamino-3 N-benzyl aza-8 bicyclo [3.2,1] octane] as the molecule, how does the “Toxicité (souris) DL 50” value (souris) read?
The value was greater than 400 mg/kg/i.p.

And the “Antagonisme aux redressements à l'apomorphine DE 50” value [1]?
The value was 2,2 mg/kg/i.p.
